Assay results from patent US9260382B2, “Methods of reducing virulence in bacteria” (priority 2010, dated 2016).
“Also recorded” adds a separate entry of the source.

Key:
hrpA promoter (T3SS) [1] = experiment: hrpA promoter-probe phrpA in Erwinia amylovora 273, flow cytometry; type: cell-based; conditions: Ea273 (phrpA), HIM + 100 μM compound
Procedure: Wild-type Erwinia amylovora 273 was used in this study. The promoter-probe plasmid phrpA was constructed as follows. The hrpA promoter region of Erwinia amylovora 273 was amplified and cloned into pPROBE-NT to produce PhrpA. Plasmid PhrpA was electroporated into Erwinia amylovora 273. Expression of hrpA was analyzed using a FACS Calibur flow cytometer (BD Biosciences, CA). Wild-type Erwinia amylovora 273 containing phrpA was cultured in a hrp-inducing medium (HIM) containing dimethyl sulfoxide (DMSO; solvent of chemical compounds), or HIM supplemented with 100 μM of each compound, and promoter activity was assessed at 6 h and 9 h by measuring GFP intensity using flow cytometry (Table 19).

hrpA promoter (T3SS) [2] = experiment: GFP reporter plasmid phrpA, flow cytometry (FACS) of hrpA promoter activity; type: cell-based, Dickeya dadantii 3937; conditions: for mean fluorescence intensity of GFP, hrpA expression: D. dadantii 3937 (phrpA), MM + 100 μM compound; for inhibitory activity on T3SS gene (hrpA) expression, in words: D. dadantii 3937, reporter plasmid phrpA, 100 μM; for minimal effective concentration: Dickeya dadantii, read-out: minimal inhibitory concentration on hrpA expression (concentration showing inhibitory effect)
Procedure: (§1) FACS analysis of promoter activity of dspE, hrpA, hrpL, hrpN, and hrpS was carried out as described (Peng et al., 2006). Briefly, the wild-type Ech3937 and the mutant strains carrying the promoter reporter plasmid were grown on LB broth at 28° C. overnight and transferred to appropriate media. For FACS analysis, samples were collected by centrifugation, washed with 1× phosphate buffer saline (PBS) at 13,000 rpm for 1 min, and re-suspended in 1×PBS to ca 10^6 CFU/ml prior to being run in a FACS Calibur flow cytometer (BD Biosciences, CA). Three replicates were performed for each treatment.
To identify potential compounds that repress activation of T3SS, analogs and isomers of TCA and intermediates of salicylic acid and phenypropanoid biosynthesis pathways in plants were further screened for their effect on Ech3937 hrpA expression by flow cytometry (Table 9). A green fluorescent protein (GFP) reporter plasmid phrpA (pProbe-AT derivative with PCR fragment containing hrpA promoter region) was constructed, resulting in a transcriptional fusion of hrpA promoter with GFP gene. Bacterial cells containing phrpA plasmid were grown in MM supplemented with 0.1 mM of each compound. GFP intensity, which is a measurement of hrpA promoter activity, was measured by flow cytometry.
hrpA encodes the T3SS pilus required for protein translocation into plant cells. To test for an inhibitory effect on T3SS hrpA expression, the reporter plasmid phrpA was used to measure the effects of these compounds on hrpA expression. The reporter plasmid phrpA encodes a transcriptional fusion of the hrpA promoter controlling expression of green fluorescent protein (gfp). 50 μL of bacterial suspension of D. dadantii 3937 carrying the hrpA reporter (optical density at 600 nm OD600=1.0) was used as the initial inoculum and added to 5 mL of MM or MM supplemented with 100 μM of one of the compounds. The expression level of hrpA of these bacterial cells was measured by measuring GFP intensity of gated populations of the bacterial cells by flow cytometry and analyzed with Cell Quest software (BD Biosciences, San Jose, Calif.). The fluorescence intensities were an average GFP fluorescence intensity of total bacterial cells. Compounds were assayed two different times (12 and 24 h of bacterial growth) with T3SS minimal media (MM) as the control treatment for each set of experiment. Values presented in Table 14 are mean fluorescence intensity of GFP, representative of two experiments, presented as the average of three replicates with standard deviation (SD).

hrpS promoter = experiment: GFP reporter plasmid phrpS, flow cytometry of hrpS promoter activity; type: cell-based, Dickeya dadantii 3937; conditions: reporter plasmid phrpS
Procedure: as §1
To test for an inhibitory effect on T3SS hrpS expression, the reporter plasmid phrpS was used to measure the effects of these compounds on hrpA expression.

exoS promoter (T3SS) = experiment: exoS promoter-gfp reporter pATexoS, flow cytometry; type: cell-based, P. aeruginosa PA01; conditions: for effect on exoS promoter activity, in words: screening for T3SS inhibitors; for Fraction of untreated control (exoS expression): structure-activity table, concentration not given; for Actual readings of flow cytometry (exoS expression): 6 h, LB with 200 mM NaCl, 10 mM NTA
Procedure: (§2) To identify T3SS inhibitors of PA01, a promoter-probe vector pPROBE-AT containing the promoterless green fluorescent protein (gfp) gene was used to construct an exoS promoter-gfp plasmid reporter, pATexoS. PA01 containing pATexoS was cultured in T3SS-inducing medium containing dimethyl sulfoxide (DMSO; solvent of chemical compounds), or supplemented with 250 μM of each compound, and promoter activity was assessed at 6 h by measuring GFP intensity using flow cytometry. 101 compounds (58 synthesized and 43 commercially available) were screened. Compounds 027, 032, 101, and 149 repressed exoS expression at the final concentration of 250 μM by at least one standard deviation below the sample average (Z score≦−1) (FIG. 37 A-E). Z score (or standard score) indicates how many standard deviations an observation or datum is above or below the mean [z=(x−μ)/σ, where x is a raw score to be standardized, μ is the mean of the population, and σ is the standard deviation of the population].
(§3) To determine the effective concentration of compounds, the dose-dependent effect of potential inhibitors on exoS expression and bacterial growth were tested. P. aeruginosa cells carrying pATexoS were pre-cultured in LB supplemented with 200 mM NaCl and transferred to fresh LB with 200 mM NaCl, 10 mM NTA, and various concentrations of compounds (20, 50, 100, and 250 μM) or DMSO for 6 h. […] At 50 μM dosage, both 027 and 101 inhibited exoS expression at similar levels, and this inhibitory effect increased as compound concentration increased (FIG. 38A and Table 17). […] These inhibitions/inductions of exoS expression are caused by the shifting bacterial population between low-state expression cells and high-state expression cells (FIG. 40).

P. aeruginosa = P. aeruginosa bacterial growth with compound; type: cell-based, P. aeruginosa PA01; conditions: P. aeruginosa, 250 μM
Procedure: as §2, §3

[3] = Trial 1, MM supplemented with compound at 100 μM
[4] = Trial 2, MM supplemented with compound at 100 μM

Row | Compound | Avg MFI ± SD, hrpA expression (hrpA promoter (T3SS) [1]; 6 h) | Avg MFI ± SD, hrpA expression (hrpA promoter (T3SS) [1]; 9 h) | mean fluorescence intensity of GFP, hrpA expression (hrpA promoter (T3SS) [2]; 12 h) | mean fluorescence intensity of GFP, hrpA expression (hrpA promoter (T3SS) [2]; 24 h) | inhibitory activity on T3SS gene (hrpA) expression, in words (hrpA promoter (T3SS) [2]) | Mean Fluorescence Intensity of GFP (hrpA, phrpA) (hrpA promoter (T3SS) [2]; [3]) | inhibitory effect on T3SS hrpS expression, in words (hrpS promoter) | effect on exoS promoter activity, in words (exoS promoter (T3SS)) | Fraction of untreated control (exoS expression) (exoS promoter (T3SS)) | Actual readings of flow cytometry (exoS expression) (exoS promoter (T3SS); 20 uM) | Actual readings of flow cytometry (exoS expression) (exoS promoter (T3SS); 50 uM) | Actual readings of flow cytometry (exoS expression) (exoS promoter (T3SS); 100 uM) | Actual readings of flow cytometry (exoS expression) (exoS promoter (T3SS); 250 uM) | minimal effective concentration (hrpA promoter (T3SS) [2]) [µM] | effect on bacterial growth, in words (P. aeruginosa) | Mean Fluorescence Intensity of GFP (hrpA, phrpA) (hrpA promoter (T3SS) [2]; [4])
1 | O=C(O)/C=C/c1ccc(Br)cc1 [Compound 111, trans-4-Bromocinnamic acid] | 102.8 ± 23.5 | 61.8 ± 4.2 | 23.9 ± 5.2 | 54.7 ± 7.2 | showed inhibitory effect; also recorded: moderate potency | 16.5 ± 0.8 | inhibited hrpS |  |  |  |  |  |  |  |  | 
2 | O=C(/C=C/c1ccccc1)NO [Compound 132, trans-Cinnamohydroxamic acid] | 145.7 ± 1.2 | 147.8 ± 4.2 |  |  |  |  |  | little or no effect on exoS promoter activity | 1.53 ± 0.19 |  |  |  |  |  |  | 
3 | COC(=O)/C=C/c1ccc(O)cc1 [Compound 101, Methyl para-coumate] | 1443.4 ± 49.4 | 1227.8 ± 41.6 | 17.5 ± 0.7 | 19.9 ± 0.5 |  |  |  |  | 0.65 ± 0.03 | 122.82 ± 2.89 | 106.83 ± 3.09 | 100.10 ± 1.33 | 81.88 ± 2.41 | 100 |  | 
4 | O=C(/C=C/c1cccc(Cl)c1)NO [Compound 149, trans-3-Chlorocinnamohydroxamic acid] | 31.2 ± 34.1 | 21.7 ± 28.5 |  |  |  |  |  |  |  |  |  |  |  |  | minor alterations in bacterial growth | 
5 | COc1ccc(/C=C/CO)cc1 [Compound 126, trans-4-Methoxycinnamyl alcohol] | 386.9 ± 9.4 | 401.4 ± 10.8 | 7.8 ± 0.2 | 13.4 ± 0.3 | showed inhibitory effect; also recorded: potent inhibitor |  | inhibited hrpS |  |  |  |  |  |  | 100 |  | 9.5 ± 0.7
6 | CNC(=O)/C=C/c1ccc(O)cc1 [Compound 137, N-Methyl-4-hydroxycinnamamide] | 1064.1 ± 99.3 | 1121.1 ± 52.1 |  |  |  |  |  | little or no effect on exoS promoter activity | 0.92 ± 0.05 |  |  |  |  |  |  | 
7 | CCOC(=O)[C@@H]1C[C@H]1c1ccc(O)cc1 (relative stereo) [Compound 106, Ethyl trans-2-(4-hydroxyphenyl)-1-cyclopropanecarboxylate] | 1289.3 ± 46.5 | 1110.9 ± 67.5 | 10.5 ± 0.8 | 49.4 ± 4.1 | showed inhibitory effect; also recorded: strong inhibitory potency | 9.4 ± 0.1 | inhibited hrpS |  |  |  |  |  |  | 100 |  | 
8 | O=C(/C=C/c1c[nH]c2ccccc12)NO [Compound 127, trans-3-Indoleacrylohydroxamic acid] | 91.4 ± 4.9 | 102.7 ± 0.5 | 21.0 ± 3.0 | 35.1 ± 3.0 | showed inhibitory effect; also recorded: moderate potency |  | inhibited hrpS |  |  |  |  |  |  | 100 |  | 26.2 ± 2.6
9 | O=P(O)(O)/C=C/c1ccc(O)cc1 [Compound 115, trans-2-(4-Hydroxyphenyl)-vinylphosphonic acid] | 442.4 ± 2.3 | 553.3 ± 32.7 | 57.9 ± 1.6 | 79.6 ± 3.3 | did not exhibit any activity |  |  |  |  |  |  |  |  |  |  | 
10 | CCOS(=O)(=O)/C=C/c1ccc(O)cc1 [Compound 122, Ethyl trans-2-(4-hydroxyphenyl)-ethenylsulfonate] | 2042.8 ± 20.7 | 2900.6 ± 120.1 | 38.6 ± 1.8 | 60.9 ± 0.8 | did not exhibit any activity |  |  |  |  |  |  |  |  |  |  | 
11 | OC/C=C/c1ccccc1 [Compound 032, Cinnamyl alcohol] | 681.6 ± 217.9 | 784.0 ± 53.3 |  |  |  |  |  |  |  |  |  |  |  |  | minor alterations in bacterial growth | 
12 | CCOC(=O)[C@@H]1C[C@H]1c1ccc(OC)cc1 (relative stereo) [Compound 100, Ethyl trans-2-(4-methoxyphenyl)-1-cyclopropanecarboxylate] | 447.8 ± 20.2 | 594.6 ± 3.5 | 45.3 ± 3.4 | 119.1 ± 22.1 |  |  |  |  |  |  |  |  |  |  |  | 
13 | NC(=O)/C=C/c1ccc(O)cc1 [Compound 102, trans-4-Hydroxycinnamaide] | 1134.0 ± 36.7 | 766.4 ± 94.8 | 21.1 ± 1.2 | 60.8 ± 10.6 | did not show any inhibitory activity |  |  |  |  |  |  |  |  | 100 |  | 
14 | O=C(O)/C=C/c1ccc(C(F)(F)F)cc1 [Compound 113, trans-4-Trifluoromethylcinnamic acid] | 84.2 ± 7.5 | 97.4 ± 23.6 | 24.4 ± 0.9 | 68.5 ± 5.7 | inactive |  |  |  |  |  |  |  |  | 100 |  | 
